The term melting point denotes the temperature of the solid-liquid transition.

Results on 86 molecules are retold here after a melting point compilation (Tetko et al.; mined from patent text by program, amines drawn as free bases though some values may be those of a salt).

For the molecule `O=C1N=C(N2CCOCC2)SC1=Cc1ccc(F)c(-c2ccc(O)c(C34CC5CC(CC(C5)C3)C4)c2)c1`, the melting point fell in the range of 338 to 343 °C.

In turn, `CCCOCc1cc(OC)c(-c2ccc(C[C@H](NC(=O)c3c(Cl)cccc3Cl)C(=O)O)cc2)c(OC)c1` yielded a melting point of 183 to 186 °C.

In turn, `COc1ccc(Sc2ccncc2)c(N)c1` registered a melting point of 93 to 94 °C.

As to `O=C1CCCN1CCc1ccccc1`, the melting point is 50.5 to 52.5 °C.

`CCC(O)(c1ccc(OCc2cccc(C)n2)cc1)c1ccccc1C(F)(F)F` (stereo unspecified) returned a melting point of 128 to 129 °C.

In the case of `CS(=O)(=O)N=C(Oc1ccccc1)Oc1ccccc1`, the melting point lay in the range of 124 to 126 °C.

In the case of `COCCc1cc(N2CCNCC2)n2nc(SC)c(S(=O)(=O)c3ccccc3)c2n1`, the melting point was in the range of 170 to 171 °C.

Take `OC1CCCCC1N1CCC(Cc2ccc(Cl)cc2)CC1` (stereo unspecified): the melting point is 69.1 to 70.4 °C.

On to `O=c1c2c(F)cccc2nc(CSc2ncnc3[nH]cnc23)n1-c1ccccc1Cl`, for which the melting point lay within 223 to 224 °C.

The molecule `O=C(O)C(=O)N1CCC(Oc2ccccc2)CC1` registered a melting point of 109 to 112 °C.

Molecule `CN(C)CC(=O)N1CCN2C(=O)N(c3cc(Cl)cc(Cl)c3)C(=O)C2(Cc2ccc(Br)cc2)C1` (stereo unspecified) displayed a melting point of 73.5 °C.

Regarding `COc1cc(N)c2nccc(C)c2c1Oc1cccc(C(F)(F)F)c1`, the melting point fell in the range of 113 to 115 °C.

Take `CCOC(=O)c1cncnc1Nc1ccccc1NC`: the melting point lay in the range of 153 to 155 °C.

Molecule `NC1=Nc2ccc([N+](=O)[O-])cc2C(c2ccccc2Cl)=NC1` gave a melting point of 222 to 224 °C.

`Cc1c(C)c2c(c(C)c1N)CC(C)(CN1CCOCC1)O2` (stereo unspecified) showed a melting point of 114 to 115 °C.

`O=C1CC(c2ccc(-c3ccc(OCc4ccc(Br)cc4)cc3)cc2)Cc2ccccc21` (stereo unspecified) displayed a melting point of 191 °C.

On to `CCOC(=O)C(C)(C)Oc1ccc(OCCn2c(=O)sc3cc(C(=NOC)c4cccc(Cl)c4)ccc32)cc1`, for which the melting point was in the range of 93 to 98 °C.

In the case of `COCC(C)OC(=O)C(=O)Nc1nc(-c2ccccc2)cs1` (stereo unspecified), the melting point is 152 to 155 °C.

As to `CCCN(CCC)S(=O)(=O)c1cc(OC)c(OC)cc1C=Cc1nc2c(c(=O)n(CCC)c(=O)n2CCC)n1C`, the melting point came to 208 °C.

`CCOC(=O)c1cc2c3ccccc3[nH]c(=O)n2n1` came in with a melting point of 242 to 244 °C.

For `Oc1ccc2cc(I)ccc2c1`, the melting point lay within 136 to 138 °C.

In turn, `CN1C(=O)CN=C(c2ccccc2F)c2cc(NC(=O)NC(C)(C)C)ccc21` displayed a melting point of 210 °C.

Take `CCOC(=O)c1c(Br)cnn1-c1c(Cl)cccc1Cl`: the melting point was in the range of 62 to 65 °C.

For the molecule `CC(=Cc1ccc(F)cc1)c1ccc2c(c1)C(C)(C)CCC2(C)C`, the melting point fell in the range of 99 to 101 °C.

Molecule `CN1CCN(Cc2cc(-c3ccc4c(c3)CCO4)nn(CC=Cc3ccc(Cl)cc3)c2=O)CC1` came in with a melting point of 112 to 113 °C.

`O=c1oc2ccc(Cl)cc2cc1S(=O)(=O)Cc1ccc(Cl)c([N+](=O)[O-])c1` had a melting point of 272 to 275 °C.

Regarding `CCn1c(C(O)(C2CCCCC2)C2CCCCC2)nc(-c2ccncc2)c1-c1ccc(Cl)cc1`, the melting point is 221 to 224 °C.

With `Nc1ccc2c(c1)C(=O)N(c1cccc(C(=O)O)c1)C2=O`, the melting point was 306 to 308 °C.

`COC(=O)CC(=O)CC(O)/C=C/c1c(-c2ccc(F)cc2)n(C(C)C)c(=O)c2ccccc12` (stereo unspecified) gave a melting point of 147 to 149 °C.

Consider `c1ccc2cc(-c3nc(COc4ccc(CCCn5ccnc5)cc4)co3)ccc2c1`, for which the melting point fell in the range of 131 to 132 °C.

For the molecule `CCCCCCCCCCCCCCCCCCOCC(CO)NC(C)=O` (stereo unspecified), the melting point was 82 to 85 °C.

On to `O=C(Nc1ccc(C(=O)Oc2ccccc2)c(Cl)c1)NS(=O)(=O)c1ccccc1`, for which the melting point lay in the range of 183 to 185 °C.

The molecule `Cc1ccc(OC(=O)CCC(=O)OOC(C)(C)C)cc1` registered a melting point of 72 to 77 °C.

As for `COc1ccc2c(=O)c(-c3ccc(C)cc3)coc2c1OC`, the melting point was 135 °C.

Molecule `CC(C)(C)OC(=O)N[C@H](Cc1ccc(C(F)(F)F)cc1)[C@@H](O)c1ccc(Cl)nc1` (racemic) gave a melting point of 157 to 158 °C.

The molecule `CC(C)(C)c1nn(-c2c(F)cc(Cl)c3nc(Cl)sc23)c(=O)o1` came in with a melting point of 157 to 158 °C.

For `O=c1ncc(I)cn1COCc1ccc(Cl)cc1`, the melting point turned out to be 168 °C.

`O=c1[nH]c2ccc(F)cc2c(=O)n1CCS` returned a melting point of 240 to 242 °C.

For `CC1(C)[C@@H](C=C(Cl)c2ccc(Cl)cc2)[C@@H]1C(=O)O` (relative stereo), the melting point was 103 to 106 °C.

The molecule `Cc1cc(O)c(F)cc1[N+](=O)[O-]` yielded a melting point of 110 to 112 °C.

Molecule `O=C1NC(=O)C(Nc2ccc(Cl)c3ccccc23)S1` (stereo unspecified) displayed a melting point of 205 to 206 °C.

`CN1CCN(C2CC3C4CCC5CC6OC6CC5(C)C4CCC3(C)C2=O)CC1` (stereo unspecified): the melting point lay in the range of 132 to 134 °C.

In the case of `N#CCCNC(=O)C1=CC(CF)(CF)Oc2ccc(Cl)cc21`, the melting point lay in the range of 134 to 136 °C.

`CCOC(=O)c1csnc1-c1cccc([N+](=O)[O-])c1` showed a melting point of 132 to 136 °C.

In the case of `Cc1cc(C)c(C)c(COc2cccc(-c3ccoc3C(=O)NNC(=O)c3ccc(O)c(C#N)c3)c2)c1C`, the melting point is 210 to 211 °C.

In the case of `COc1ccc(Cn2cc3nc(Cl)nc(Cl)c3n2)cc1`, the melting point fell in the range of 108 to 109 °C.

As to `CCOC(=O)c1c[nH]n(Cc2ccccc2)c1=O`, the melting point lay within 79 to 81 °C.

The molecule `CCCOc1ncc(NC(C)C(=O)OC)cc1-c1nc2c(CCC)nn(C)c2c(=O)[nH]1` (stereo unspecified) yielded a melting point of 185 to 187 °C.

In turn, `CCOC(=O)c1ncn2c1[C@@H]1CCCN1C(=O)c1c-2ccc(F)c1F` returned a melting point of 199 to 200 °C.

As for `O=C(Nc1ccc(Cl)cc1)C(F)(F)C(O)(Cn1cncn1)c1ccc(F)cc1F` (stereo unspecified), the melting point was 86 to 87 °C.

In turn, `CCN(C)c1nc(-c2ccc(OC)c(OC)c2)nc2sc(C#N)c(C)c12` displayed a melting point of 133 to 135 °C.

Molecule `CCOC(=O)C(OC)C(=O)Nc1cc(Cl)cc(Cl)c1` (stereo unspecified) had a melting point of 89.5 to 92.5 °C.

`CC(CCc1ccc(Cl)cc1)(Cn1ccnc1)Sc1cccc(Cl)c1Cl` (stereo unspecified) gave a melting point of 126 to 128 °C.

Turning to `CN(C(=O)COc1cc(-c2ccccc2)nc2ccccc12)c1ccccc1`, the melting point was 150 °C.

In the case of `CNC(=O)n1nc(Oc2ccc([N+](=O)[O-])c(C(F)(F)F)c2)cc1C`, the melting point was in the range of 139 to 141 °C.

Regarding `Cc1cn(-c2cc3nc(NN)c(=O)n(OCc4ccccc4)c3cc2C(F)(F)F)c(-c2ccccc2)n1`, the melting point fell in the range of 127 to 130 °C.

Regarding `COc1cc2c(cc1Nc1ncc(Cl)c(N[C@H]3[C@@H](C(N)=O)[C@@H]4C=C[C@H]3C4)n1)CCN(Cc1ncco1)CC2`, the melting point lay in the range of 110 to 119 °C.

In the case of `CCCCN1C(=O)CSC(=NOC(=O)NC)C1C` (stereo unspecified), the melting point lay within 118 to 120 °C.

As to `O=C(O)C(CCc1ccccc1)NS(=O)(=O)c1ccc2sc3ccccc3c2c1` (stereo unspecified), the melting point lay in the range of 148 to 151 °C.

`O=C(c1ccncc1)N1CCN(Cc2ccc3c(c2)Cc2c(-c4ccsc4)n[nH]c2-3)CC1`: the melting point lay in the range of 218 to 220 °C.

As for `C[C@]1(COc2ccc(N3CCC(N4CCN(c5ccc(Cl)cc5)CC4)CC3)cc2)Cn2cc([N+](=O)[O-])nc2O1`, the melting point is 247 to 249 °C.

Take `CCCC1(O)CCN(C)C(Cc2ccc(OC)cc2)C1(C)C` (stereo unspecified): the melting point lay in the range of 85 to 102 °C.

In turn, `CCOCc1nc2c(N)nc(C)cc2n1CCCCNS(C)(=O)=O` showed a melting point of 162 to 164 °C.

Regarding `COc1ccc(C=CC(=O)CC(=O)C=Cc2ccc(OC)c(OC)c2)cc1OC`, the melting point was in the range of 129 to 131 °C.

In turn, `CC(=O)C(Cc1cc(O)c(O)c([N+](=O)[O-])c1)C(=O)C1CC1` (stereo unspecified) had a melting point of 98 to 104 °C.

`CCCNCc1cccc(OCCCNc2nc(N)nn2C)c1` displayed a melting point of 79 to 81 °C.

Molecule `O=C(O)C(=NO)C(c1ccc(OCc2ccc3cc(F)ccc3n2)cc1)c1ccc(OCc2ccc3cc(F)ccc3n2)cc1` registered a melting point of 107 °C.

Take `COc1ccccc1NC(=O)Nc1nc(Nc2ccccc2-c2ccccc2)nc(N(CCC(=O)O)Cc2cccc(F)c2)n1`: the melting point was 115 to 128 °C.

For the molecule `CCCCCCOc1c(OC)cc(N)c2ncccc12`, the melting point was 168 to 171 °C.

Consider `CC1=CC=CC(O)(C(=N)N)C1C` (stereo unspecified), for which the melting point is 110 to 111 °C.

`O=C(CCc1ccc(Cl)cc1Cl)NC1CC(=O)c2ccccc2NC1=O` (stereo unspecified) displayed a melting point of 234 to 236 °C.

The molecule `CCCCCCCCCCNc1ccc(C(=O)Nc2cc(C(=O)NCCSC)ccc2OC)cc1` had a melting point of 100 to 104 °C.

Consider `O=C(C1=NN(CC(F)(F)F)C(=O)CN1)c1ccccc1`, for which the melting point lay in the range of 142 to 145 °C.

`O=C(O)c1cc2c(s1)-c1ccccc1OC2C1=CCCC=C1` (stereo unspecified) displayed a melting point of 258 to 260 °C.

With `CC(CCCC(C)(C)O)C1CCC2C3=CC=C4CCCC(O)C4(C)C3CCC21C` (stereo unspecified), the melting point fell in the range of 151 to 152 °C.

In the case of `O=C1c2ccccc2C(=O)N1CCCSC1N=CC=CN1NC(=S)NCC(F)(F)F` (stereo unspecified), the melting point lay within 214 to 215 °C.

With `Cc1c(NC(=O)c2cc3c(s2)CCCC3)cccc1-c1cn(C)c(=O)c(Nc2ccc([C@@H](C(=O)N(C)C)N(C)C(C)C)cc2)n1`, the melting point was in the range of 133 to 134 °C.

Molecule `COc1cccc(C(O)c2cccnc2Cl)c1` (stereo unspecified) came in with a melting point of 114 to 115 °C.

`C[Si](C)(c1ccccc1)c1ccccc1CO` returned a melting point of 53 to 54 °C.

Turning to `O=C(Nc1cccc(CN2C(=O)[C@H]3CCC[C@H]3N(C(=O)CN3C(=O)c4ccccc4C3=O)c3ccccc32)c1)c1ccccc1` (relative stereo), the melting point lay in the range of 244 to 246 °C.

Molecule `CC1(C)OCc2cccc(Cc3c[nH]cn3)c2O1` showed a melting point of 160 to 170 °C.

`COc1ccc(OC)c2c1COC(c1ncc(S(=O)(=O)c3ccc(C)cc3)o1)C2` (stereo unspecified) yielded a melting point of 138 to 140 °C.

The molecule `CONS(=O)(=O)c1c(C)nn(C)c1Cl` showed a melting point of 120 to 122 °C.

As to `O=C(CCCN1CCC(c2noc3cc(F)ccc23)CC1)c1cc2c(s1)CCCNC2=O`, the melting point was 142 to 143 °C.

In the case of `COc1ccc(C2=NN(C3CCN(CC(N)=O)CC3)C(=O)C(C)(C)C2)c2c1OC(C)(C)C2`, the melting point fell in the range of 215 to 216 °C.

As for `CN(C)Cc1nnc2n1-c1ccc(Cl)cc1C(c1ccc(Cl)cc1)=[N+]([O-])C2`, the melting point is 260 °C.
